Data published in US6624146B1, “Pharmaceutical compositions containing fibroblast growth factor-related peptides” (Agency of Industrial Science and Technology, priority 1998, dated 2003).

Assays:
[1] = Weight-reducing effect: change in body weight the day after injection into the cerebral ventricles; type: in vivo, Wistar rats
Experimental: This peptide was dissolved in physiological saline to prepare a 2.6 pmol/μl peptide-containing injection solution. Five μl of the injection solution (containing 13 pmol peptide) was administered into the cerebral ventricles of 10-week-old male Wistar rats, which were weighed on the next day to calculate amounts of change in weight prior to and subsequent to injection.
On the other hand, 5 μl physiological saline was administered to rats as a control in the same manner as described above, and 2.6 pmol/μl FGF-containing injection solution was administered to rats as a comparative example in the same manner as described above. Each rat was weighed on the next day to calculate amounts of change in weight prior to and subsequent to injection.

[2] = Food and water intake inhibitory effects 12 hours after injection into the cerebral ventricles; type: in vivo, Wistar rats
Experimental: In the same manner as in example 1, the peptide […]Try-Lys-Lys-Pro-Lys-Leu (SEQ ID NO:3) was synthesized. This peptide was dissolved in physiological saline to prepare a 2.6 pmol/μl peptide-containing injection solution. Five μl of the injection solution (containing 13 pmol peptide) was administered in the cerebral ventricles of 10-week old male Wistar rats, and the food and water intake level were measured 12 hours after administration to compare with those in the same period of the day prior to administration.
On the other hand, 5 μl physiological saline was administered as a control in the same manner as described above, and 2.6 pmol/μl FGF-containing injection solution was administered as a comparative example in the same manner as described above. Food and water intake levels were measured respectively 12 hours after administration, and were compared to those in the same period of the day prior to administration to calculate amounts of change in food and water intake.

[3] = 13 pmol into the cerebral ventricles, 12 hours, vs saline control
[4] = 10-week-old male Wistar rats, 13 pmol/5 μl into the cerebral ventricles, 12 hours after administration vs same period of the day prior

## Ala-Ala-Val-Ala-Leu-Leu-Pro-Ala-Val-Leu-Leu-Ala-Leu-Leu-Ala-Val-Ala-Ala-Ala-Asn-Try-Lys-Lys-Pro-Lys-Leu (AAVALLPAVLLALLAVAAANYKKPKL; Derivative of partial peptide of fibroblast growth factors)
[1]; 13 pmol into the cerebral ventricles, next day, vs saline control
  Weights of the rats compared to physiological saline control (in words): significantly reduced
[1]; 10-week-old male Wistar rats, 13 pmol/5 μl into the cerebral ventricles, weighed on the next day, prior vs subsequent to injection
  Amount of change in weight: -5.3 g
[2]; [3]
  Food intake level compared to physiological saline control (in words): significantly reduced
  Water intake level compared to physiological saline control (in words): significantly reduced
[2]; [4]
  Amount of change in food intake: -4.8 g
  Amount of change in water intake: -8.4 mL
